Molecules are shown by their SMILES. Counter-ions that a name gives are not always drawn.

The values that follow come from patent US4879311A, “Derivatives of benzoyloxyacetic acid, and preparation and formulations thereof for therapeutic use” (Inverni della Beffa S.p.A., priority 1987, dated 1989).

The series is described as follows: pH of aqueous solution. It is filed as physicochemical. The following applies: 1% aqueous solution.

As for `Cc1ccc(Cl)c(Nc2ccccc2C(=O)OCC(=O)O)c1Cl` [Ic, d,l-lysine salt (Ic) of 2-[(2,6-dichloro-3-methylphenyl)-amino]benzoyloxyacetic acid], the “pH in 1% aqueous solution” value was 6.75.
